Patent publication US5591714A, “Derivatives of A82846” (priority 1994, dated 1997)
Converted amounts (≈) assume the structure as drawn.

Tests used:
[1] = tested on: Enterococcus faecalis 2041; assay: MIC, standard agar-dilution assay; type: cell-based
Protocol: (§1) The formula I compounds have in vitro and in vivo activity against Gram-positive pathogenic bacteria. The MIC's were determined using a standard agar-dilution assays.
^c Formerly Streptococcus faecalis 2041

Staphylococcus aureus = assay: In vivo activity, experimentally infected mice (ED50); conditions: Staphylococcus aureus infection; doses administered subcutaneously to mice 1 and 4 hours postinfection
Enterococcus faecium X66 = assay: MIC, standard agar-dilution assay; type: cell-based
Protocol: as §1
^b Formerly Streptococcus faecium X66

Streptococcus pneumoniae = assay: In vivo activity, experimentally infected mice (ED50); conditions: Streptococcus pneumoniae infection; doses administered subcutaneously to mice 1 and 4 hours postinfection
Streptococcus pyogenes = assay: as above; conditions: Streptococcus pyogenes infection; doses administered subcutaneously to mice 1 and 4 hours postinfection
[2] = tested on: Streptococcus pneumoniae Park 1; type: cell-based
Protocol: as §1

[3] = tested on: Staphylococcus aureus S13E; type: cell-based
Protocol: as §1

[4] = tested on: Streptococcus pyogenes C203; assay: MIC, standard agar-dilution assay; type: cell-based
Protocol: as §1

[5] = tested on: Haemophilus influenzae 76; assay: MIC, standard agar-dilution assay; type: cell-based
Protocol: as §1

[6] = tested on: Staphylococcus aureus V41; assay: MIC, standard agar-dilution assay; type: cell-based
Protocol: as §1

Escherichia coli N10 = assay: MIC, standard agar-dilution assay; type: cell-based
Protocol: as §1

[7] = tested on: Klebsiella pneumoniae X26; assay: MIC, standard agar-dilution assay; type: cell-based
Protocol: as §1

[8] = tested on: Haemophilus influenzae C.L.; assay: MIC, standard agar-dilution assay; type: cell-based
Protocol: as §1

[9] = tested on: Staphylococcus epidermidis EPI270; assay: MIC, standard agar-dilution assay; type: cell-based
Protocol: as §1

Escherichia coli TEM = assay: MIC, standard agar-dilution assay; type: cell-based
Protocol: as §1

Escherichia coli EC14 = assay: MIC, standard agar-dilution assay; type: cell-based
Protocol: as §1

[10] = tested on: Klebsiella pneumoniae KAE; assay: MIC, standard agar-dilution assay; type: cell-based
Protocol: as §1

[11] = tested on: Staphylococcus aureus X400; assay: MIC, standard agar-dilution assay; type: cell-based
Protocol: as §1

[12] = tested on: Staphylococcus epidermidis 222; assay: MIC, standard agar-dilution assay; type: cell-based
Protocol: as §1

[13] = tested on: Staphylococcus aureus NRRL X1.1; assay: MIC, standard agar-dilution assay; type: cell-based
Protocol: as §1

[14] = tested on: Klebsiella pneumoniae X68; assay: MIC, standard agar-dilution assay; type: cell-based
Protocol: as §1

Structure (SMILES)	MIC [1]	ED50 (Staphylococcus aureus) [mg/kg/2]	MIC (Enterococcus faecium X66)	ED50 (Streptococcus pneumoniae) [mg/kg/2]	ED50 (Streptococcus pyogenes) [mg/kg/2]	MIC [2]	MIC [3]	MIC [4]	MIC [5] [µg/mL]	MIC [6]	MIC (Escherichia coli N10) [µg/mL]	MIC [7] [µg/mL]	MIC [8] [µg/mL]	MIC [9]	MIC (Escherichia coli TEM) [µg/mL]	MIC (Escherichia coli EC14) [µg/mL]	MIC [10] [µg/mL]	MIC [11]	MIC [12]	MIC [13]	also measured
CN[C@H](CC(C)C)C(=O)N[C@H]1C(=O)N[C@@H](CC(N)=O)C(=O)N[C@H]2C(=O)N[C@H]3C(=O)N[C@H](C(=O)N[C@H](C(=O)O)c4cc(O)cc(O)c4-c4cc3ccc4O)[C@H](O[C@H]3C[C@](C)(N)[C@@H](O)[C@H](C)O3)c3ccc(cc3)Oc3cc2cc(c3O[C@@H]2O[C@H](CO)[C@@H](O)[C@H](O)[C@H]2O[C@H]2C[C@](C)(NCCc3ccccc3)[C@@H](O)[C@H](C)O2)Oc2ccc(cc2Cl)[C@H]1O [Compound 24]	.5 µg/mL (≈ 0.301 µM)	0.72	.5 µg/mL (≈ 0.301 µM)	0.25	0.09	.25 µg/mL (≈ 0.15 µM)	1 µg/mL (≈ 0.602 µM)	.25 µg/mL (≈ 0.15 µM)	> 128	.5 µg/mL (≈ 0.301 µM)	> 128	> 128	> 128	.5 µg/mL (≈ 0.301 µM)	> 128	> 128	> 128	1 µg/mL (≈ 0.602 µM)	.5 µg/mL (≈ 0.301 µM)	.5 µg/mL (≈ 0.301 µM)	MIC [14]: > 128 µg/mL
CCCCCCC(=O)N[C@@]1(C)C[C@H](O[C@H]2[C@H](Oc3c4cc5cc3Oc3ccc(cc3Cl)[C@@H](O)[C@@H](NC(=O)[C@@H](CC(C)C)NC)C(=O)N[C@@H](CC(N)=O)C(=O)N[C@H]5C(=O)N[C@H]3C(=O)N[C@H](C(=O)N[C@H](C(=O)O)c5cc(O)cc(O)c5-c5cc3ccc5O)[C@H](O[C@H]3C[C@](C)(N)[C@@H](O)[C@H](C)O3)c3ccc(cc3)O4)O[C@H](CO)[C@@H](O)[C@@H]2O)O[C@@H](C)[C@@H]1O [Compound 27]	2 µg/mL (≈ 1.2 µM)	> 1.0	2 µg/mL (≈ 1.2 µM)	0.71	0.5	.25 µg/mL (≈ 0.15 µM)	2 µg/mL (≈ 1.2 µM)	.5 µg/mL (≈ 0.299 µM)	> 128	1 µg/mL (≈ 0.599 µM)	> 128	> 128	> 128	2 µg/mL (≈ 1.2 µM)	> 128	> 128	> 128	1 µg/mL (≈ 0.599 µM)	2 µg/mL (≈ 1.2 µM)	1 µg/mL (≈ 0.599 µM)	MIC [14]: > 128 µg/mL
CCCCCN[C@@]1(C)C[C@H](O[C@H]2[C@H](Oc3c4cc5cc3Oc3ccc(cc3Cl)[C@@H](O[C@H]3C[C@](C)(N)[C@@H](O)[C@H](C)O3)[C@@H]3NC(=O)[C@H](NC(=O)[C@@H]5NC(=O)[C@H](CC(N)=O)NC(=O)[C@H](NC(=O)[C@@H](CC(C)C)NC)[C@H](O)c5ccc(c(Cl)c5)O4)c4ccc(O)c(c4)-c4c(O)cc(O)cc4[C@@H](C(=O)O)NC3=O)O[C@H](CO)[C@@H](O)[C@@H]2O)O[C@@H](C)[C@@H]1O [Compound 34]	1 µg/mL (≈ 0.601 µM)	0.77	.5 µg/mL (≈ 0.301 µM)	0.44	0.44	.5 µg/mL (≈ 0.301 µM)	.5 µg/mL (≈ 0.301 µM)	.5 µg/mL (≈ 0.301 µM)	> 128	.5 µg/mL (≈ 0.301 µM)	> 128	> 128	> 128	2 µg/mL (≈ 1.2 µM)	> 128	> 128	> 128	1 µg/mL (≈ 0.601 µM)	.5 µg/mL (≈ 0.301 µM)	.5 µg/mL (≈ 0.301 µM)	MIC [14]: > 128 µg/mL
CNC(CC(C)C)C(=O)NC1C(=O)NC(CC(N)=O)C(=O)NC2C(=O)NC3C(=O)NC(C(=O)NC(C(=O)O)c4cc(O)cc(O)c4-c4cc3ccc4O)C(OC3CC(C)(N)C(O)C(C)O3)c3ccc(c(Cl)c3)Oc3cc2cc(c3OC2OC(CO)C(O)C(O)C2OC2CC(C)(NCc3ccccc3)C(O)C(C)O2)Oc2ccc(cc2Cl)C1O (stereo not drawn) [Compound 51]	.5 µg/mL (≈ 0.297 µM)	0.34	.25 µg/mL (≈ 0.149 µM)	0.35	0.16	.125 µg/mL (≈ 0.0743 µM)	.25 µg/mL (≈ 0.149 µM)	.25 µg/mL (≈ 0.149 µM)	> 128	.5 µg/mL (≈ 0.297 µM)	> 128	> 128	> 128	1 µg/mL (≈ 0.594 µM)	> 128	> 128	> 128	.5 µg/mL (≈ 0.297 µM)	.5 µg/mL (≈ 0.297 µM)	.25 µg/mL (≈ 0.149 µM)	MIC [14]: > 128 µg/mL
CNC(CC(C)C)C(=O)NC1C(=O)NC(CC(N)=O)C(=O)NC2C(=O)NC3C(=O)NC(C(=O)NC(C(=O)O)c4cc(O)cc(O)c4-c4cc3ccc4O)C(OC3CC(C)(N)C(O)C(C)O3)c3ccc(c(Cl)c3)Oc3cc2cc(c3OC2OC(CO)C(O)C(O)C2OC2CC(C)(NCc3ccccc3Cl)C(O)C(C)O2)Oc2ccc(cc2Cl)C1O (stereo not drawn) [Compound 62]	.5 µg/mL (≈ 0.291 µM)	0.77	.25 µg/mL (≈ 0.146 µM)	0.17	0.20	.125 µg/mL (≈ 0.0728 µM)	1 µg/mL (≈ 0.582 µM)	.125 µg/mL (≈ 0.0728 µM)	> 128	.5 µg/mL (≈ 0.291 µM)	> 128	> 128	> 128	1 µg/mL (≈ 0.582 µM)	> 128	> 128	> 128	1 µg/mL (≈ 0.582 µM)	.5 µg/mL (≈ 0.291 µM)	.5 µg/mL (≈ 0.291 µM)	MIC [14]: > 128 µg/mL
CNC(CC(C)C)C(=O)NC1C(=O)NC(CC(N)=O)C(=O)NC2C(=O)NC3C(=O)NC(C(=O)NC(C(=O)O)c4cc(O)cc(O)c4-c4cc3ccc4O)C(OC3CC(C)(N)C(O)C(C)O3)c3ccc(c(Cl)c3)Oc3cc2cc(c3OC2OC(CO)C(O)C(O)C2OC2CC(C)(NCc3cccc(Cl)c3)C(O)C(C)O2)Oc2ccc(cc2Cl)C1O (stereo not drawn) [Compound 64]	.25 µg/mL (≈ 0.146 µM)	0.55	.25 µg/mL (≈ 0.146 µM)	0.10	0.94	.25 µg/mL (≈ 0.146 µM)	.5 µg/mL (≈ 0.291 µM)	.06 µg/mL (≈ 0.0349 µM)	> 128	.25 µg/mL (≈ 0.146 µM)	> 128	> 128	> 128	.25 µg/mL (≈ 0.146 µM)	> 128	> 128	> 128	.5 µg/mL (≈ 0.291 µM)	.5 µg/mL (≈ 0.291 µM)	.25 µg/mL (≈ 0.146 µM)	MIC [14]: > 128 µg/mL
